Test results: patent publication US20210220376A1, “ADDICTION TREATMENT OF AN ALCOHOL-CONSUMING PATIENT POPULATION” (Amygdala Neurosciences, Inc., priority 2018, published 2021)

Legend:
[1] = target: T1, hMAO-A (Homo sapiens, UniProt P21397); details: read-out: IC50 hMAO-A; cited from earlier work
T1 sequence (P21397 1-527): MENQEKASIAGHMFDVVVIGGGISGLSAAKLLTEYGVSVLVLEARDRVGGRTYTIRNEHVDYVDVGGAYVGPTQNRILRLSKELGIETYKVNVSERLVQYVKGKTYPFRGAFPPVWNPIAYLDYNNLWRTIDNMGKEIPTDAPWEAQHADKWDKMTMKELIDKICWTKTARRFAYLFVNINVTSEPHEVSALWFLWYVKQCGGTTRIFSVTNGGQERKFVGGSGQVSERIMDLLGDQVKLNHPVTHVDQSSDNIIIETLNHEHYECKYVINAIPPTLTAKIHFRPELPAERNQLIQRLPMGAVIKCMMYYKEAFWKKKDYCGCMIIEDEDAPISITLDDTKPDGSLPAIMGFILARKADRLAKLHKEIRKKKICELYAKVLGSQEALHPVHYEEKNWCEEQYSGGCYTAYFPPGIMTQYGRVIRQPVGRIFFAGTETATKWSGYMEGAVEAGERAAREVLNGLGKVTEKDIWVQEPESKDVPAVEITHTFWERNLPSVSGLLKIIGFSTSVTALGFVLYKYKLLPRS

[2] = target: T2, hMAO-B (Homo sapiens, UniProt P27338); details: read-out: IC50 hMAO-B; cited from earlier work
T2 sequence (P27338 1-520): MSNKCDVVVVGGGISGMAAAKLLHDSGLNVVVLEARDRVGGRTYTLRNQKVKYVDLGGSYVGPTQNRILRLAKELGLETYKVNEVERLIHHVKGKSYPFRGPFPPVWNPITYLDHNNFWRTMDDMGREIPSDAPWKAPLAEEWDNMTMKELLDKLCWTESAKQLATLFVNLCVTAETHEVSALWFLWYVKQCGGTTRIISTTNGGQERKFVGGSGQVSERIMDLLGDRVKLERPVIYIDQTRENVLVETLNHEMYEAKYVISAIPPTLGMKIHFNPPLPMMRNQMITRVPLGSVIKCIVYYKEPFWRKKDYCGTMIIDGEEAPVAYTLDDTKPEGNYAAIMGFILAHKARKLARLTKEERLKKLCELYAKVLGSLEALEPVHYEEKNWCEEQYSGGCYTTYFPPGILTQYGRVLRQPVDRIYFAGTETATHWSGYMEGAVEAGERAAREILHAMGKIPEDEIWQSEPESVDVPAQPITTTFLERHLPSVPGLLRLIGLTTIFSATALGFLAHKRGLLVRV

[3] = Phase 1 study of compound (2) with ethanol: pharmacokinetics of compound (1) and breath alcohol
Source text: Plasma concentrations of compound (1) and BrAC were summarized and listed by treatment, subject and timepoint. Pharmacokinetic parameters derived for compound (1) were also summarized and listed by treatment and subject. Pharmacokinetic parameters were estimated using a non-compartmental approach with a log-linear terminal phase assumption. The trapezoidal rule was used to estimate the area under the curve (linear trapezoidal linear interpolation) and the terminal phase will be estimated by maximizing the coefficient of determination estimated from the log-linear regression model. However, AUC0-∞, AUClast/∞, λz and t1/2 parameters were to be estimated for individual concentration-time profiles only when the terminal log-linear phase could be reliably characterized.
Proportionality analysis was done using a power model. The power model was defined as: […]
A linear model with ln-transformed dose as a continuous effect was fitted. A point estimate and a 90% CI was derived for the slope (β). The parameter could be considered to be dose proportional if the 90% confidence interval of the slope β was within [1+ln(0.8)/ln(r), 1+ln(1.25)/ln(r)], where r=the highest dose studied/the lowest dose (Smith et al., “Confidence interval criteria for assessment of dose proportionality.” Pharm Res. 17 (10):1278-83 (2000)).

[4] = tested on: alcohol-consuming patient population; details: 500 mg/day DSF; cited from earlier work

Structure (SMILES): O=C(NCc1ccc(-c2cc[nH]c(=O)c2)cc1)c1c(F)cccc1F [(11), 2,6-difluoro-N-(4-(2-oxo-1,2-dihydropyridin-4-yl)benzyl)benzamide]
- IC50 [1]: > 130 µM
- IC50 [2]: > 130 µM

Structure (SMILES): O=C(NCc1ccc(-c2cc[nH]c(=O)c2)cc1)c1cccc(F)c1Cl [(4), 2-chloro-3-fluoro-N-(4-(2-oxo-1,2-dihydropyridin-4-yl)benzyl)benzamide]
- IC50 [1]: > 130 µM
- IC50 [2]: > 130 µM

Structure (SMILES): O=C(NCc1ccc(-c2cc[nH]c(=O)c2)cc1F)c1c(Cl)cccc1Cl [(13), 2,6-dichloro-N-(2-fluoro-4-(2-oxo-1,2-dihydropyridin-4-yl)benzyl)benzamide]
- IC50 [1]: > 130 µM
- IC50 [2]: > 130 µM

Structure (SMILES): O=C(NCc1ccc(-c2cc[nH]c(=O)c2)cc1)c1c(Cl)cccc1Cl [Compound (1), 2,6-dichloro-N-[4-(2-oxo-1,2-dihydro-pyridin-4-yl)-benzyl]-benzamide]
- IC50 [1]: > 130 µM
- dose proportionality of peak and overall exposure (power model) ([3]; 25 mg to 600 mg dose range): did not increase in a compound (2) dose-proportional manner
- peak (Cmax) and overall (AUC) exposure to compound (1) ([3]; following a moderate-fat meal): increased with increasing dose of compound (2)
- Tmax ([3]; male, human, plasma, po): 3.5 to 5 h
- half-life ([3]; male, human, plasma, po): 17 to 27 h
- IC50 [2]: > 130 µM

Structure (SMILES): Cc1cc(CNC(=O)c2c(Cl)cccc2Cl)ccc1-c1cc[nH]c(=O)c1 [(9), 2,6-dichloro-N-(3-methyl-4-(2-oxo-1,2-dihydropyridin-4-yl)benzyl)benzamide]
- IC50 [1]: > 130 µM
- IC50 [2]: > 130 µM

Structure (SMILES): Cc1cccc(Cl)c1C(=O)NCc1ccc(-c2cc[nH]c(=O)c2)cc1 [(5), 2-chloro-6-methyl-N-(4-(2-oxo-1,2-dihydropyridin-4-yl)benzyl)benzamide]
- IC50 [1]: > 130 µM
- IC50 [2]: > 130 µM

Structure (SMILES): O=C(NCc1ccc(-c2cc[nH]c(=O)c2)cc1)c1c(F)cccc1Cl [(12), 2-chloro-6-fluoro-N-(4-(2-oxo-1,2-dihydropyridin-4-yl)benzyl)benzamide]
- IC50 [1]: > 130 µM
- IC50 [2]: > 130 µM

Structure (SMILES): O=C(NCc1ccc(-c2cc(=O)[nH]cc2F)cc1)c1c(Cl)cccc1Cl [(14), 2,6-dichloro-N-(4-(5-fluoro-2-oxo-1,2-dihydropyridin-4-yl)benzyl)benzamide]
- IC50 [1]: > 130 µM
- IC50 [2]: > 130 µM

Structure (SMILES): CCN(CC)C(=S)SSC(=S)N(CC)CC [DSF, Disulfuram]
- outcome of safety study [4]: halted prematurely due to severity of DER

Structure (SMILES): O=C(NCc1ccc(-c2cc[nH]c(=O)c2)cc1)c1c(F)ccc(F)c1Cl [(8), 2-chloro-3,6-difluoro-N-(4-(2-oxo-1,2-dihydropyridin-4-yl)benzyl)benzamide]
- IC50 [1]: > 130 µM
- IC50 [2]: > 130 µM

Structure (SMILES): COCCOc1cc(Cl)c(C(=O)NCc2ccc(-c3cc[nH]c(=O)c3)cc2)c(Cl)c1 [(3), 2,6-dichloro-4-(2-methoxyethoxy)-N-(4-(2-oxo-1,2-dihydropyridin-4-yl)benzyl)benzamide]
- IC50 [1]: > 130 µM
- IC50 [2]: > 130 µM

Structure (SMILES): Cn1ccc(-c2ccc(CNC(=O)c3c(Cl)cccc3Cl)cc2)cc1=O [(10), 2,6-dichloro-N-(4-(1-methyl-2-oxo-1,2-dihydropyridin-4-yl)benzyl)benzamide]
- IC50 [1]: > 130 µM
- IC50 [2]: > 130 µM

Structure (SMILES): Cc1cccc(C)c1C(=O)NCc1ccc(-c2cc[nH]c(=O)c2)cc1 [(6), 2,6-dimethyl-N-(4-(2-oxo-1,2-dihydropyridin-4-yl)benzyl)benzamide]
- IC50 [1]: > 130 µM
- IC50 [2]: > 130 µM

Structure (SMILES): Cc1cc(-c2ccc(CNC(=O)c3c(Cl)cccc3Cl)cc2)cc(=O)[nH]1 [(7), 2,6-dichloro-N-[4-(6-methyl-2-oxo-1,2-dihydro-pyridin-4-yl)-benzyl]-benzamide]
- IC50 [1]: > 130 µM
- IC50 [2]: > 130 µM
